In US11390603B2, “Crystalline forms of a biphenyl compound” (THERAVANCE BIOPHARMA R&D IP, LLC, priority 2005, dated 2022):
pKi: −log10 of the molar value.

Assays:
[1] = target: T1, M3 muscarinic receptor subtype (Homo sapiens, UniProt P20309); assay: Radioligand binding assay ([3H]-NMS displacement); settings: CHO cell membranes, [3H]-NMS at 1 nM; tested in this or a similar assay
T1 construct: expressed in transfected cells
Procedure: CHO cell lines stably expressing cloned human hM1, hM2, hM3 and hM4 muscarinic receptor subtypes, respectively, were grown to near confluency in medium consisting of HAM's F-12 supplemented with 10% FBS and 250 μg/mL Geneticin. The cells were grown in a 5% CO2, 37° C. incubator and lifted with 2 mM EDTA in dPBS. Cells were collected by 5 minute centrifugation at 650×g, and cell pellets were either stored frozen at −80° C. or membranes were prepared immediately. For membrane preparation, cell pellets were resuspended in lysis buffer and homogenized with a Polytron PT-2100 tissue disrupter (Kinematica AG; 20 seconds×2 bursts). Crude membranes were centrifuged at 40,000×g for 15 minutes at 4° C. […] The protein concentration of the membrane suspension was determined by the method described in Lowry, O. et al., Journal of Biochemistry 193:265 (1951). […]
Radioligand binding assays were performed in 96-well microtiter plates in a total assay volume of 100 μL. […] Filter plates were rinsed three times with wash buffer (10 mM HEPES) to remove unbound radioactivity. […] The plates were then counted in a PerkinElmer Topcount liquid scintillation counter (PerkinElmer Inc., Wellesley, Mass.). Binding data were analyzed by nonlinear regression analysis with the GraphPad Prism Software package (GraphPad Software, Inc., San Diego, Calif.) using the one-site competition model. […]

guinea pigs = assay: Duration of bronchoprotection in guinea pig model of acetylcholine-induced bronchoconstriction; format: in vivo; settings: 1.5 hours post-dose, inhalation
Procedure: Groups of six male guinea pigs (Duncan-Hartley (HsdPoc:DH) Harlan, Madison, Wis.) weighing between 250 and 350 g are individually identified by cage cards. Throughout the study animals are allowed access to food and water ad libitum.
Test compounds are administered via inhalation over 10 minutes in a whole-body exposure dosing chamber (R&S Molds, San Carlos, Calif.). The dosing chambers are arranged so that an aerosol was simultaneously delivered to 6 individual chambers from a central manifold. Guinea pigs are exposed to an aerosol of a test compound or vehicle (WFI). […] This is measured gravimetrically by comparing pre-and post-nebulization weights of the filled nebulizer.
The bronchoprotective effects of test compounds administered via inhalation are evaluated using whole body plethysmography at 1.5, 24, 48 and 72 hours post-dose.
Forty-five minutes prior to the start of the pulmonary evaluation, each guinea pig is anesthetized with an intramuscular injection of ketamine (43.75 mg/kg), xylazine (3.50 mg/kg) and acepromazine (1.05 mg/kg). […] The depth of anesthesia is monitored and adjusted if the animal responds to pinching of its paw or if the respiration rate is greater than 100 breaths/minute. […]
Starting this program initiates the experimental protocol and data collection. […] By integrating this signal over time, a measurement of […] is calculated for each breath. […]

T1 sequence (P20309 whole entry): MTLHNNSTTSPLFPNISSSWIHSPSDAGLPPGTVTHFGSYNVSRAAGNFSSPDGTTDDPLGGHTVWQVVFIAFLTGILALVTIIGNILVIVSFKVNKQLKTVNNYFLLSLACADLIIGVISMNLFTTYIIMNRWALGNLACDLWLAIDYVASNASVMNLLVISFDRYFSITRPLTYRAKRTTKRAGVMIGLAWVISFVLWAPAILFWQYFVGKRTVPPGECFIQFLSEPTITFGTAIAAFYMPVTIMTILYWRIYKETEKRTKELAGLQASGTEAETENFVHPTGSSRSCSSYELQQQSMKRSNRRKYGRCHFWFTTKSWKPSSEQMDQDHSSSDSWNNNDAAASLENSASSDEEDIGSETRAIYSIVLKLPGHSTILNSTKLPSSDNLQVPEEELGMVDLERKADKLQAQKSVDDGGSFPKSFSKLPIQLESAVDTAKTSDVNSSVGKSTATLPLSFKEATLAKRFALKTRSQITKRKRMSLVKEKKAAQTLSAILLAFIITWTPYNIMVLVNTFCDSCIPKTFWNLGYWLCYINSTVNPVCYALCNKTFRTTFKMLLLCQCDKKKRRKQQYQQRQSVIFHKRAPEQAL

Structure (SMILES): CN(CCN1CCC(OC(=O)Nc2ccccc2-c2ccccc2)CC1)C(=O)c1ccc(CN2CCC(C(N)=O)CC2)cc1 [compound of formula I, biphenyl-2-ylcarbamic acid 1-(2-{[4-(4-carbamoylpiperidin-1-ylmethyl)benzoyl]methylamino}ethyl)piperidin-4-yl ester]
- pKi [1]: > 8.30
- PD2(50) for ACh-induced bronchoconstriction (guinea pigs): less than 200 μg/mL
